One assay deals with T1, BMP7 (Homo sapiens, UniProt P18075).
T1 sequence (P18075 293-431): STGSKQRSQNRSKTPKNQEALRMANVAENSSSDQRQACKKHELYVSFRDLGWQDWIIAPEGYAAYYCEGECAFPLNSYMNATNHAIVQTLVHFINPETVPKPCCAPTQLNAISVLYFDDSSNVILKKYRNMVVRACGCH
The assay is described as follows: BMP7 signal transduction inhibitory activity: SMAD1 phosphorylation by BMP7 stimulus, A549 cells. In kind it is cell-based. In a few lines:
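A549 cells were stimulated with 10 nM BMP7, and the read-out was SMAD1 phosphorylation. Peptides were tested at three concentrations spanning 1 to 1,000 nM, with sets depending on the peptide series. Some peptides were run in eight-point 1/3 dilutions starting from 100 nM or 1,000 nM, with recombinant human Noggin as positive control at matching concentrations.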

In a further assay the target is T2, BMP6 (Homo sapiens, UniProt P22004).
T2 sequence (P22004 375-513): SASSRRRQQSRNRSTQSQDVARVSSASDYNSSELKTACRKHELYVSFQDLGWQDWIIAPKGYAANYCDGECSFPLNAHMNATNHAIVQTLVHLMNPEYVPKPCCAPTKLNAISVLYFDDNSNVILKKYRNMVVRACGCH
Description: BMP family signal transduction inhibition (SMAD1 phosphorylation), BMP6 stimulus. Format: cell-based. An excerpt:
In the present Example, BMP4 signal transduction inhibition peptide No. 177, peptide No. 29986 (SEQ ID NO: 277 (Example 8)), and peptide SEQ ID NO: 417 (Example 6) synthesized in Example 2, Example 8, and Example 6 were verified in the same manner as in Example 13 in order to confirm presence or absence of signal transduction inhibitory activities obtained by BMPs 2, 5, 6, 9, 12, and 14 belonging to the respective BMP families.
Regarding the concentrations of the respective BMPs in the evaluation, 0.3 nM of BMP2, 2 nM of BMP5, 3 nM of BMP6, 10 nM of BMP9 and BMP12, and 0.6 nM of BMP14 were added, followed by application of stimulus.
Regarding No. 177, the concentrations of the peptides were as follows. Specifically, eight concentrations of the peptides were used at a common ratio of 1/3 starting from 10 nM (BMP2), starting from 200 nM (BMP5), starting from 100 nM (BMP6), starting from 1,000 nM (BMP9 and BMP12), and starting from 60 nM (BMP14). The evaluation was performed in the same manner as in Example 11 except for the above points. Note that recombinant Human Noggin Protein (R&D) as a positive control was used at the same concentration as the peptide.
Regarding the peptide SEQ ID NO: 277 (Example 8), the concentrations of the peptides were as follows. […]

“Also recorded” adds a separate entry of the source. Numbered stars: 1 amine (or outer) side, 2 acyl side, 3 side chain; on linkers, the order of the positions; unused ones are H or OH. Bridge positions count the residues as written; N and C are the ends. Square brackets hold non-standard residues; d marks the D form. Peptide text beside a SMILES is read from it. ξ: configuration not given here. X2 = O=C(C[C@@H](Cc1ccc(-c2ccccc2)cc1)C(=O)[*:2])[C@@H]1CCCN1[*:1]; Phe(4-COOH) = N[C@@H](Cc1ccc(C(=O)O)cc1)C(=O)O; Bip = N[C@@H](Cc1ccc(-c2ccccc2)cc1)C(=O)O; Nle(6-COOH) = N[C@@H](CCCCC(=O)O)C(=O)O; X1 = N=C(CN)NCCC[C@H](N[*:1])C(=O)[*:2]; Ala(4-THP) = N[C@@H](CC1CCOCC1)C(=O)O; ξE = NC(CCC(=O)O)C(=O)O; βAla = NCCC(=O)O

For the compound `CC(C)[C@@H]1NC(=O)[C@H](CCCNC(=N)N)NC(=O)[C@H](CCCCC(=O)O)NC(=O)CSC[C@@H](C(=O)NCCC(=O)NC(CCC(=O)O)C(=O)O)NC(=O)[C@H](CO)NC(=O)[C@H](Cc2ccc(C(=O)O)cc2)NC(=O)[C@H](Cc2ccc(C(=O)O)cc2)NC(=O)[C@H](Cc2ccc(O)cc2)NC(=O)[C@H](Cc2ccc(-c3ccccc3)cc2)CC(=O)[C@@H]2CCCN2C(=O)[C@H](Cc2ccc(O)cc2)NC(=O)[C@@H]2CCCN2C(=O)[C@H](Cc2ccc(-c3ccccc3)cc2)NC(=O)[C@H](CCCNC(=N)CN)NC(=O)[C@H](CC(=O)O)NC(=O)[C@H](CC2CCOCC2)NC(=O)[C@H](Cc2ccc(C(=O)O)cc2)NC1=O` (some centres unmarked) [SEQ ID No. 177] ({CH2CO}-[Nle(6-COOH)]RV[Phe(4-COOH)][Ala(4-THP)]D[X1][Bip]PY[X2]Y[Phe(4-COOH)][Phe(4-COOH)]SC[βAla][ξE]-OH; thioether N-16), the “BMP7 inhibitory activity (in words)” value at BMP7 is “same level of the BMP7 inhibitory activity as Noggin; also recorded: signal transduction inhibitory activities of BMP4 and BMP7”. Besides, the “BMP6 signal transduction inhibitory activity (in words)” value on BMP6 is “signal transduction inhibitory activities of BMP2, BMP5, and BMP6”.

The record behind these values is patent US20250361274A1, “PEPTIDE AND PEPTIDE-CONTAINING AGENT” (PEPTIDREAM INC., priority 2022, published 2025).
